Experimental data from US12109196B2, “Non-sedating dexmedetomidine treatment regimens” (BioXcel Therapeutics, Inc., priority 2019, dated 2024).
Counter-ions that a name gives are not always drawn. Like-named read-outs stand apart in the source and are kept apart here.

Experiments:
[1] = Experimental: (§1) Patients 5, 7, 8 and 9 received placebo.
The level of dexmedetomidine in the plasma of patients was also measured over the time of infusion.

[2] = test system: agitation in subjects suffering from schizophrenia
Description: (§2) Another Key Objective of the study was to determine the reduction in the level of agitation, as determined by their PEC score, at the doses to achieve a RASS of −1.
as §1
(§3) CGI-I focused on the severity of agitation rather than the severity of the illness. • (4) After the infusion was stopped, the participants were judged for the suitability for discharge by the principal investigator or designee as witnessed by a return to their baseline level of alertness and awareness with no impairment in balance, gait, and reaction time as determined by the principal investigator or designee. Results (A) Efficacy Study RASS (Richmond Agitation-Sedation Scale)

[3] = test system: subjects suffering from schizophrenia
Description: as §2, §1, §3

[4] = test system: acute agitation associated with schizophrenia, schizoaffective disorder or schizophreniform disorder; conditions: 2 hours post-dose
Description: PEC comprised 5 items associated with agitation: poor impulse control, tension, hostility, uncooperativeness, and excitement; each scored 1 (minimum) to 7 (maximum). The PEC, the sum of these 5 subscales, thus ranging from 5 to 35.
Efficacy Analyses: The primary efficacy endpoint of the study was the absolute change from baseline in PEC score at 120 mins (2 hours). The intent to treat population (ITT) was analyzed and consisted of all patients who took any study medication and who had both baseline and at least 1 efficacy assessment after dosing. Analyses were conducted using a restricted maximum likelihood repeated measures mixed model on change from baseline values with baseline as a covariate and timepoint, and its interaction with treatment groups as repeated measures using an unstructured covariance structure. Responder comparisons were made via Fisher's exact test.
There were 5 dose cohorts (20 μg, 60 μg, 80 μg, 120 μg and 180 μg) with 18 active patients (total of 90 patients) and 9 placebo patients (total of 45 patients) in each cohort. Active patients in each of the 5 dose cohorts were compared to placebo patients from all 5 cohorts (pooled placebo group).

## Cc1cccc([C@H](C)c2cnc[nH]2)c1C [dexmedetomidine hydrochloride, (+) 4-(S)-[1-(2,3-dimethylphenyl)ethyl]-1H-imidazole]
[1]; Patient 1 (Treatment), 0 Mins
  Plasma level concentration: BLQ
[1]; Patient 1 (Treatment), 15 Mins
  Plasma level concentration: 0.02245 ng/mL
[1]; Patient 1 (Treatment), 30 Mins
  Plasma level concentration: 0.01472 ng/mL
[1]; Patient 2 (Treatment), 0 Mins
  Plasma level concentration: BLQ
[1]; Patient 2 (Treatment), 30 Mins
  Plasma level concentration: BLQ
[1]; Patient 3 (Treatment), 30 Mins
  Plasma level concentration: BLQ
[1]; Patient 3 (Treatment), 45 Mins
  Plasma level concentration: BLQ
[1]; Patient 4 (Treatment), 0 Mins
  Plasma level concentration: BLQ
[1]; Patient 4 (Treatment), 15 Mins
  Plasma level concentration: BLQ
[1]; Patient 4 (Treatment), 30 Mins
  Plasma level concentration: BLQ
[1]; Patient 4 (Treatment), 45 Mins
  Plasma level concentration: BLQ
[1]; Patient 4 (Treatment), 60 Mins
  Plasma level concentration: BLQ
[1]; Patient 4 (Treatment), 75 Mins
  Plasma level concentration: BLQ
[1]; Patient 4 (Treatment), 90 Mins
  Plasma level concentration: 0.0443 ng/mL
[1]; Patient 11 (Treatment), 0 Mins
  Plasma level concentration: BLQ
[1]; Patient 11 (Treatment), 15 Mins
  Plasma level concentration: 0.04101 ng/mL
[1]; Patient 11 (Treatment), 30 Mins
  Plasma level concentration: 0.06291 ng/mL
[1]; Patient 11 (Treatment), 45 Mins
  Plasma level concentration: 0.12407 ng/mL
[1]; Patient 11 (Treatment), 60 Mins
  Plasma level concentration: 0.15047 ng/mL
[1]; Patient 12 (Treatment), 0 Mins
  Plasma level concentration: BLQ
[1]; Patient 12 (Treatment), 15 Mins
  Plasma level concentration: BLQ
[1]; Patient 12 (Treatment), 30 Mins
  Plasma level concentration: 0.04487 ng/mL
[1]; Patient 12 (Treatment), 45 Mins
  Plasma level concentration: 0.05051 ng/mL
[1]; Patient 12 (Treatment), 60 Mins
  Plasma level concentration: 0.1086 ng/mL
[1]; Patient 12 (Treatment), 75 Mins
  Plasma level concentration: 0.15854 ng/mL
[1]; Patient 12 (Treatment), 90 Mins
  Plasma level concentration: 0.23783 ng/mL
[1]; Patient 12 (Treatment), 105 Mins
  Plasma level concentration: 0.2673 ng/mL
[1]; Patient 14 (Treatment), 0 Mins
  Plasma level concentration: BLQ
[1]; Patient 14 (Treatment), 15 Mins
  Plasma level concentration: BLQ
[1]; Patient 14 (Treatment), 30 Mins
  Plasma level concentration: 0.05266 ng/mL
[1]; Patient 14 (Treatment), 45 Mins
  Plasma level concentration: 0.04653 ng/mL
[1]; Patient 14 (Treatment), 60 Mins
  Plasma level concentration: 0.4063 ng/mL
[1]; Patient 16 (Treatment), 0 Mins
  Plasma level concentration: BLQ
[1]; Patient 16 (Treatment), 15 Mins
  Plasma level concentration: 0.00256 ng/mL
[1]; Patient 16 (Treatment), 30 Mins
  Plasma level concentration: 0.01559 ng/mL
[1]; Patient 16 (Treatment), 45 Mins
  Plasma level concentration: 0.04117 ng/mL
[1]; Patient 16 (Treatment), 60 Mins
  Plasma level concentration: 0.06788 ng/mL
[1]; Patient 16 (Treatment), 75 Mins
  Plasma level concentration: 0.07226 ng/mL
[1]; Patient 17 (Treatment), 0 Mins
  Plasma level concentration: BLQ
[1]; Patient 17 (Treatment), 15 Mins
  Plasma level concentration: 0.01587 ng/mL
[1]; Patient 17 (Treatment), 30 Mins
  Plasma level concentration: BLQ
[1]; Patient 17 (Treatment), 45 Mins
  Plasma level concentration: 0.03993 ng/mL
[1]; Patient 18 (Treatment), 0 Mins
  Plasma level concentration: BLQ
[1]; Patient 18 (Treatment), 15 Mins
  Plasma level concentration: 0.04836 ng/mL
[1]; Patient 18 (Treatment), 30 Mins
  Plasma level concentration: 0.05453 ng/mL
[2]; IV infusion
  Patients (out of 10) in the treatment arm with agitation reduced to a PEC score of 7 or below: 9
[2]; IV route
  Subjects (of 10) with >=50% reduction in PEC score: 7
[2]; Patient 1 (treatment arm), 0 Mins
  PEC value after infusion start: 9
[2]; Patient 1 (treatment arm), 15 Mins
  PEC value after infusion start: 5
[2]; Patient 2 (treatment arm), 0 Mins
  PEC value after infusion start: 16
[2]; Patient 2 (treatment arm), 15 Mins
  PEC value after infusion start: 13
[2]; Patient 2 (treatment arm), 30 Mins
  PEC value after infusion start: 12
[2]; Patient 2 (treatment arm), 45 Mins
  PEC value after infusion start: 11
[2]; Patient 2 (treatment arm), 60 Mins
  PEC value after infusion start: 9
[2]; Patient 2 (treatment arm), 75 Mins
  PEC value after infusion start: 7
[2]; Patient 3 (treatment arm), 0 Mins
  PEC value after infusion start: 12
[2]; Patient 3 (treatment arm), 15 Mins
  PEC value after infusion start: 12
[2]; Patient 3 (treatment arm), 30 Mins
  PEC value after infusion start: 10
[2]; Patient 3 (treatment arm), 45 Mins
  PEC value after infusion start: 7
[2]; Patient 3 (treatment arm), 60 Mins
  PEC value after infusion start: 6
[2]; Patient 4 (treatment arm), 0 Mins
  PEC value after infusion start: 9
[2]; Patient 4 (treatment arm), 15 Mins
  PEC value after infusion start: 9
[2]; Patient 4 (treatment arm), 30 Mins
  PEC value after infusion start: 8
[2]; Patient 4 (treatment arm), 45 Mins
  PEC value after infusion start: 8
[2]; Patient 4 (treatment arm), 60 Mins
  PEC value after infusion start: 7
[2]; Patient 4 (treatment arm), 75 Mins
  PEC value after infusion start: 7
[2]; Patient 4 (treatment arm), 90 Mins
  PEC value after infusion start: 7
[2]; Patient 4 (treatment arm), 105 Mins
  PEC value after infusion start: 7
[2]; Patient 4 (treatment arm), 120 Mins
  PEC value after infusion start: 7
[2]; Patient 4 (treatment arm), 135 Mins
  PEC value after infusion start: 7
[2]; Patient 11 (treatment arm), 0 Mins
  PEC value after infusion start: 13
[2]; Patient 11 (treatment arm), 15 Mins
  PEC value after infusion start: 13
[2]; Patient 11 (treatment arm), 30 Mins
  PEC value after infusion start: 11
[2]; Patient 11 (treatment arm), 45 Mins
  PEC value after infusion start: 9
[2]; Patient 11 (treatment arm), 60 Mins
  PEC value after infusion start: 9
[2]; Patient 11 (treatment arm), 75 Mins
  PEC value after infusion start: 7
[2]; Patient 12 (treatment arm), 0 Mins
  PEC value after infusion start: 13
[2]; Patient 12 (treatment arm), 15 Mins
  PEC value after infusion start: 13
[2]; Patient 12 (treatment arm), 30 Mins
  PEC value after infusion start: 13
[2]; Patient 12 (treatment arm), 45 Mins
  PEC value after infusion start: 10
[2]; Patient 12 (treatment arm), 60 Mins
  PEC value after infusion start: 10
[2]; Patient 12 (treatment arm), 75 Mins
  PEC value after infusion start: 8
[2]; Patient 12 (treatment arm), 90 Mins
  PEC value after infusion start: 6
[2]; Patient 12 (treatment arm), 105 Mins
  PEC value after infusion start: 5
[2]; Patient 14 (treatment arm), 0 Mins
  PEC value after infusion start: 10
[2]; Patient 14 (treatment arm), 15 Mins
  PEC value after infusion start: 9
[2]; Patient 14 (treatment arm), 30 Mins
  PEC value after infusion start: 6
[2]; Patient 14 (treatment arm), 45 Mins
  PEC value after infusion start: 6
[2]; Patient 14 (treatment arm), 60 Mins
  PEC value after infusion start: 5
[2]; Patient 14 (treatment arm), 75 Mins
  PEC value after infusion start: 5
[2]; Patient 16 (treatment arm), 0 Mins
  PEC value after infusion start: 10
[2]; Patient 16 (treatment arm), 15 Mins
  PEC value after infusion start: 9
[2]; Patient 16 (treatment arm), 30 Mins
  PEC value after infusion start: 6
[2]; Patient 16 (treatment arm), 45 Mins
  PEC value after infusion start: 6
[2]; Patient 16 (treatment arm), 60 Mins
  PEC value after infusion start: 7
[2]; Patient 16 (treatment arm), 75 Mins
  PEC value after infusion start: 5
[2]; Patient 17 (treatment arm), 0 Mins
  PEC value after infusion start: 10
[2]; Patient 17 (treatment arm), 15 Mins
  PEC value after infusion start: 8
[2]; Patient 17 (treatment arm), 30 Mins
  PEC value after infusion start: 7
[2]; Patient 17 (treatment arm), 45 Mins
  PEC value after infusion start: 5
[3]; IV infusion from 0.2 mcg/kg/hr rising 0.1 mcg/kg/hr every 30 minutes
  Patients (out of 10) in the treatment arm who achieved a RASS score of at least −1: 9
[3]; Patient 1 (treatment arm), 0 minutes
  RASS value after infusion start: 1
[3]; Patient 1 (treatment arm), 15 minutes
  RASS value after infusion start: −2
[3]; Patient 2 (treatment arm), 0 minutes
  RASS value after infusion start: 3
[3]; Patient 2 (treatment arm), 30 minutes
  RASS value after infusion start: 0
[3]; Patient 2 (treatment arm), 60 minutes
  RASS value after infusion start: 0
[3]; Patient 2 (treatment arm), 75 minutes
  RASS value after infusion start: −1
[3]; Patient 3 (treatment arm), 0 minutes
  RASS value after infusion start: 1
[3]; Patient 3 (treatment arm), 30 minutes
  RASS value after infusion start: 0
[3]; Patient 3 (treatment arm), 45 minutes
  RASS value after infusion start: 0
[3]; Patient 3 (treatment arm), 60 minutes
  RASS value after infusion start: −1
[3]; Patient 4 (treatment arm), 0 minutes
  RASS value after infusion start: 1
[3]; Patient 4 (treatment arm), 30 minutes
  RASS value after infusion start: 0
[3]; Patient 4 (treatment arm), 60 minutes
  RASS value after infusion start: 0
[3]; Patient 4 (treatment arm), 90 minutes
  RASS value after infusion start: 0
[3]; Patient 4 (treatment arm), 120 minutes
  RASS value after infusion start: 0
[3]; Patient 4 (treatment arm), […]
  RASS value after infusion start: 0
[3]; Patient 11 (treatment arm), 0 minutes
  RASS value after infusion start: 1
[3]; Patient 11 (treatment arm), 30 minutes
  RASS value after infusion start: 0
[3]; Patient 11 (treatment arm), 60 minutes
  RASS value after infusion start: 0
[3]; Patient 11 (treatment arm), 75 minutes
  RASS value after infusion start: −1
[3]; Patient 12 (treatment arm), 0 minutes
  RASS value after infusion start: 1
[3]; Patient 12 (treatment arm), 30 minutes
  RASS value after infusion start: 0
[3]; Patient 12 (treatment arm), 60 minutes
  RASS value after infusion start: 0
[3]; Patient 12 (treatment arm), 90 minutes
  RASS value after infusion start: 0
[3]; Patient 12 (treatment arm), 120 minutes
  RASS value after infusion start: −1
[3]; Patient 14 (treatment arm), 0 minutes
  RASS value after infusion start: 1
[3]; Patient 14 (treatment arm), 30 minutes
  RASS value after infusion start: 0
[3]; Patient 14 (treatment arm), 60 minutes
  RASS value after infusion start: 0
[3]; Patient 14 (treatment arm), 75 minutes
  RASS value after infusion start: −1
[3]; Patient 16 (treatment arm), 0 minutes
  RASS value after infusion start: 1
[3]; Patient 16 (treatment arm), 30 minutes
  RASS value after infusion start: 0
[3]; Patient 16 (treatment arm), 60 minutes
  RASS value after infusion start: 0
[3]; Patient 16 (treatment arm), 75 minutes
  RASS value after infusion start: −1
[3]; Patient 17 (treatment arm), 0 minutes
  RASS value after infusion start: 1
[3]; Patient 17 (treatment arm), 30 minutes
  RASS value after infusion start: 0
[3]; Patient 17 (treatment arm), 45 minutes
  RASS value after infusion start: −1
[3]; Patient 18 (treatment arm), 0 minutes
  RASS value after infusion start: 0
[3]; Patient 18 (treatment arm), 15 minutes
  RASS value after infusion start: −1
[4]; 80 μg
  PANSS-PEC Total Score, Change from baseline, mean (SD): −7.3
[4]; 120 μg
  PANSS-PEC Total Score, Change from baseline, mean (SD): −9.2
[4]; 180 μg
  PANSS-PEC Total Score, Change from baseline, mean (SD): −10.8
